From PubChem BioAssay AID1552 (Sanford-Burnham Center for Chemical Genomics, 2009)
Calls of active or inactive are those of the source. How the calls were made is not given here.

target: Ubiquitin-conjugating enzyme E2 N (Homo sapiens) (UniProt P61088); assay: UBE2N binders by NMR, biophysical, purified protein (AID 1552); conditions: NMR binding to purified UBE2N
Sequence (P61088 whole entry, looked up): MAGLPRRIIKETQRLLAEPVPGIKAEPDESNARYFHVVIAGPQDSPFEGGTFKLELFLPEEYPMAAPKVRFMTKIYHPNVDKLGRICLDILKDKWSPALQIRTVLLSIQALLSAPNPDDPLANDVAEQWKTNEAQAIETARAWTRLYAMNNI

Question: `COc1ccc(N2C(=N)C(C)(C)NC2=O)cc1` was tested. Which Kd did it give?
Answer: > 4 mM (inactive)

Question: With `Cc1onc(-c2c(F)cccc2Cl)c1C(N)=O` as the compound, how does the Kd read?
Answer: > 4 mM (inactive)

Question: `Nc1nc(O)c(C2=c3cc(Cl)ccc3=NC2=O)s1` was tested. Which Kd did it give?
Answer: > 4 mM (inactive)

Question: How did the Kd turn out when `Cc1cc(-c2ccc(Cl)cc2)n2nc(N)nc2n1` was run?
Answer: > 4 mM (inactive)

Question: With `O=c1oc2c(O)c(O)cc3c(=O)oc4c(O)c(O)cc1c4c23` as the compound, how does the Kd read?
Answer: > 4 mM (inactive)

Question: With `CC(C)(C)C(=O)Nc1ncc(C(F)(F)F)cc1Cl` as the compound, how does the Kd read?
Answer: > 4 mM (inactive)

Question: How did the Kd turn out when `CNc1nc(N)c(C(=O)C(C)(C)C)s1` was run?
Answer: > 4 mM (inactive)

Question: Which Kd does the source give for `Cc1ccccc1NC(=O)CSc1ccnc(=O)[nH]1` here?
Answer: > 4 mM (inactive)

Question: How did the Kd turn out when `COC(=O)c1cc(C)on1` was run?
Answer: > 4 mM (inactive)

Question: How did the Kd turn out when `OCC1=Cc2ccccc2OC1` was run?
Answer: > 4 mM (inactive)

Question: `NS(=O)(=O)c1ccc(N=Cc2ccc[nH]2)cc1` was tested. Which Kd did it give?
Answer: > 4 mM (inactive)

Question: Which Kd does the source give for `COc1cc([C@@H]2c3cc4c(cc3[C@H](O)[C@H]3COC(=O)[C@@H]23)OCO4)cc(OC)c1OC` here?
Answer: > 4 mM (inactive)

Question: How did the Kd turn out when `Cc1ccc(C(=O)N2CCC(C(=O)O)CC2)cc1` was run?
Answer: > 4 mM (inactive)

Question: How did the Kd turn out when `O=c1c2ccccc2[nH]c2ncccc12` was run?
Answer: > 4 mM (inactive)

Question: `CCOC(=O)C1=C(C)N2CCN=C2S1` was tested. Which Kd did it give?
Answer: > 4 mM (inactive)

Question: With `O=C(O)c1cccc2c1OCC2` as the compound, how does the Kd read?
Answer: > 4 mM (inactive)

Question: `CCn1cnc(C(=O)NC)c1C(=O)NC` was tested. Which Kd did it give?
Answer: > 4 mM (inactive)

Question: For `CCOc1nc(C)ccc1-c1noc(-c2ccco2)n1`, which Kd is on record?
Answer: > 4 mM (inactive)

Question: With `Oc1cccc2[nH]ccc12` as the compound, how does the Kd read?
Answer: > 4 mM (inactive)

Question: Which Kd does the source give for `COCCOc1nc2ccccc2nc1C` here?
Answer: > 4 mM (inactive)

Question: Which Kd does the source give for `Cc1ccc(NC(=O)N2CCC(C(N)=O)CC2)cc1` here?
Answer: > 4 mM (inactive)

Question: For `S=C(Nc1ccc2nccnc2c1)N1CCOCC1`, which Kd is on record?
Answer: > 4 mM (inactive)

Question: How did the Kd turn out when `COCC(=O)Nc1cccc(Br)c1` was run?
Answer: > 4 mM (inactive)

Question: `CC1C[C@H]2CC(=O)[C@H]3CCCN4CCC[C@H]2[C@]34C1` (some centres not stated) was tested. Which Kd did it give?
Answer: > 4 mM (inactive)

Question: How did the Kd turn out when `O=C(CSc1ncnc2ccccc12)NCCCO` was run?
Answer: > 4 mM (inactive)

Question: Which Kd does the source give for `CC1(C)CC[C@]2(C)CC[C@]3(C)C(=CCC4[C@@]5(C)CC[C@H](O)C(C)(C)C5CC[C@]43C)C2C1` (some centres not stated) here?
Answer: > 4 mM (inactive)

Question: `C=C[C@@]1(C)CC(=O)[C@@]2(O)[C@](C)(O1)[C@@H](OC(C)=O)[C@@H](O)C1C(C)(C)CC[C@H](O)[C@@]12C` (some centres not stated) was tested. Which Kd did it give?
Answer: > 4 mM (inactive)

Question: `Nc1nc2ccc(N3CCOCC3)cc2s1` was tested. Which Kd did it give?
Answer: > 4 mM (inactive)

Question: Which Kd does the source give for `O=c1c2ccccc2oc2ccc(O)cc12` here?
Answer: > 4 mM (inactive)

Question: Which Kd does the source give for `CSc1nnc2c(n1)OC(C)=Nc1ccccc1-2` here?
Answer: > 4 mM (inactive)

Question: Which Kd does the source give for `Cc1cc(NC(=O)c2cnn3cccnc23)no1` here?
Answer: > 4 mM (inactive)

Question: How did the Kd turn out when `CC1(C)C2CC(=O)[C@]3(C)C(CC[C@@]4(C)[C@H](c5ccoc5)OC(=O)[C@H]5O[C@]543)[C@@]2(C)C=C[C@@H]1O` (some centres not stated) was run?
Answer: > 4 mM (inactive)

Question: How did the Kd turn out when `C=CC(=O)N1CC2CC(C1)c1cccc(=O)n1C2` (configuration not stated) was run?
Answer: > 4 mM (inactive)

Question: For `CN1C(=O)c2ccc(N3CCCC3)cc2C1=O`, which Kd is on record?
Answer: > 4 mM (inactive)

Question: With `N#Cc1cnn2c(C(F)(F)F)cc(C(F)(F)F)nc12` as the compound, how does the Kd read?
Answer: > 4 mM (inactive)

Question: `OCc1ccncc1` was tested. Which Kd did it give?
Answer: > 4 mM (inactive)

Question: With `CS(=O)(=O)Nc1ccc(C(=O)N2CCCCC2)cc1` as the compound, how does the Kd read?
Answer: > 4 mM (inactive)

Question: With `CC1(C)CC2C1CCC1(C)OC1CCC2(C)O` (configuration not stated) as the compound, how does the Kd read?
Answer: > 4 mM (inactive)

Question: With `COc1ccccc1NC(=O)/C=N/O` as the compound, how does the Kd read?
Answer: > 4 mM (inactive)

Question: Which Kd does the source give for `CC(=O)Oc1ccc(N2C(=O)C3C4C=CC(O4)C3C2=O)cc1` (configuration not stated) here?
Answer: > 4 mM (inactive)

Question: With `O=C(O)c1csc(-c2ccccc2)n1` as the compound, how does the Kd read?
Answer: > 4 mM (inactive)

Question: `CC(C)=NNC(=O)C(=O)Nc1ccc(F)cc1` was tested. Which Kd did it give?
Answer: > 4 mM (inactive)

Question: Which Kd does the source give for `CC(=O)NC12CC3CC(CC(O)(C3)C1)C2` here?
Answer: > 4 mM (inactive)

Question: How did the Kd turn out when `Cn1c(=O)c2c(ncn2CCNC2=NCCC2)n(C)c1=O` was run?
Answer: > 4 mM (inactive)

Question: How did the Kd turn out when `O=C(c1cc2ccccc2o1)c1nc2c(n1O)CCCCC2` was run?
Answer: > 4 mM (inactive)

Question: `O=C(Nc1ccccc1)N1CCOCC1` was tested. Which Kd did it give?
Answer: > 4 mM (inactive)

Question: For `CCNC(=S)N1CCC(C(N)=O)CC1`, which Kd is on record?
Answer: > 4 mM (inactive)
